# In US20130281397A1, “TREATMENT OF DISEASES BY EPIGENETIC REGULATION” (RVX Therapeutics Inc., priority 2012, published 2013):
# Structures can show the parent of a compound that is named as a salt.
# Molecular target: T1, Brd4 bromodomain 1 (Homo sapiens, UniProt O60885)
# T1 construct: made in house; host or cells: E. coli BL21(DE3)
# Assay: Inhibition of binding of tetra-acetylated histone H4 and Brd4 bromodomain 1 by TR-FRET
# Settings: His-tagged bromodomain 200 nM, biotinylated tetra-acetylated histone H4 peptide 25-50 nM, 2 hours at room temperature
# Experimental: Proteins were cloned and overexpressed with a N-terminal 6×His tag, then purified by nickel affinity followed by size exclusion chromatography. Briefly, E. coli BL21(DE3) cells were transformed with a recombinant expression vector encoding N-terminally […] tagged bromodomains from Brd2, Brd3, or Brd4. Cell cultures were incubated at 37° C. with shaking to the appropriate density and induced overnight with IPTG. The supernatant of lysed cells was loaded onto Ni-IDA column for purification. Eluted protein was pooled, concentrated and further purified by size exclusion chromatography. Fractions representing monomeric protein were pooled, concentrated, aliquoted, and frozen at −80° C. for use in subsequent experiments.
# For inhibition assays, serially diluted test compound was added to these reactions in a 0.2% final concentration of DMSO. Final buffer concentrations were 30 mM HEPES pH 7.4, 30 mM NaCl, 0.3 mM CHAPS, 20 mM phosphate pH 7.0, 320 mM KF, 0.08% BSA). […] The binding inhibitory activity was shown by a decrease in 665 nm fluorescence relative to 620 nm. IC50 values were determined from a dose response curve.
row,SMILES,FRET activity (<50 uM)
1,"N=C(N)NCCC[C@H](N)C(=O)Oc1ccc(-c2cc3ccccc3c(=O)[nH]2)cc1 (stereo in doubt) [Example 2, 4-(1-Oxo-1,2-dihydroisoquinolin-3-yl)phenyl 2-amino-5-guanidinopentanoate trihydrochloride]",Active
2,"Cc1cc(-c2cc3ncccc3c(=O)[nH]2)cc(C)c1O [Example 5, 7-(4-hydroxy-3,5-dimethylphenyl)-1,6-naphthyridin-5(6H)-one]",Inactive
3,"COc1cc(OC)c2c(=O)[nH]c(-c3cc(C)c(OCCO)c(C)c3)cc2c1 [Example 6, 3-(4-(2-hydroxyethoxy)-3,5-dimethylphenyl)-6,8-dimethoxyisoquinolin-1(2H)-one]",Active
4,"COc1cc(OC)c2c(=O)[nH]c(-c3cc(C)c(OCCN(C)C)c(C)c3)cc2c1 [Example 7, 3-(4-(2-(dimethylamino)ethoxy)-3,5-dimethylphenyl)-6,8-dimethoxyisoquinolin-1(2H)-one]",Active
5,"COc1cc(O)nc2cc(-c3cc(C)c(O)c(C)c3)[nH]c(=O)c12 [Example 9, 2-hydroxy-7-(4-hydroxy-3,5-dimethylphenyl)-4-methoxy-1,6-naphthyridin-5(6H)-one]",Inactive
6,"COc1cc(OC)c2c(=O)[nH]c(-c3cc(C)c(O)c(C)c3)cc2n1 [Example 13, 7-(4-hydroxy-3,5-dimethylphenyl)-2,4-dimethoxy-1,6-naphthyridin-5(6H)-one]",Active
7,"COc1cc2cc(-c3cc(C)c(O)c(C)c3)n(C)c(=O)c2c(OC)c1CN1CCOCC1 [Example 14, 3-(4-hydroxy-3,5-dimethylphenyl)-6,8-dimethoxy-2-methyl-7-(morpholinomethyl)isoquinolin-1(2H)-one]",Inactive
8,"COc1cc(OC)c2c(=O)[nH]c(-c3cc(C)c(OCCN4CCOCC4)c(C)c3)cc2c1 [Example 15, 3-(3,5-dimethyl-4-(2-morpholinoethoxy)phenyl)-6,8-dimethoxyisoquinolin-1(2H)-one]",Active
9,"COc1cc(OC)c2c(=O)[nH]c(-c3cc(C)c(OCCN4CCN(C)CC4)c(C)c3)cc2c1 [Example 18, 3-(3,5-dimethyl-4-(2-(4-methylpiperazin-1-yl)ethoxy)phenyl)-6,8-dimethoxyisoquinolin-1(2H)-one]",Active
10,"COc1cc(OC)c2c(=O)[nH]c(-c3ccc(O)cc3)nc2c1 [Example 19, 2-(4-hydroxyphenyl)-5,7-dimethoxyquinazolin-4(3H)-one]",Active
11,"COc1cc(OC)c2c(=O)[nH]c(-c3ccc(OCC(=O)O)cc3)nc2c1 [Example 20, 2-(4-(5,7-dimethoxy-4-oxo-3,4-dihydroquinazolin-2-yl)phenoxy)acetic acid]",Active
12,"COc1cc(OC)c2c(=O)[nH]c(-c3ccccn3)nc2c1 [Example 21, 5,7-dimethoxy-2-(pyridin-2-yl)quinazolin-4(3H)-one]",Active
13,"COc1cc(OC)c2c(=O)[nH]c(-c3cccnc3)nc2c1 [Example 22, 5,7-dimethoxy-2-(pyridin-3-yl)quinazolin-4(3H)-one]",Active
14,"COc1cc(OC)c2c(=O)[nH]c(-c3ccncc3)nc2c1 [Example 28, 5,7-dimethoxy-2-(pyridin-4-yl)quinazolin-4(3H)-one]",Inactive
15,"Cc1cc(-c2nc3ccccc3c(=O)[nH]2)cc(C)c1OCCN1CCOCC1 [Example 29, 2-(3,5-dimethyl-4-(2-morpholinoethoxy)phenyl)quinazolin-4(3H)-one]",Inactive
16,"COc1cc(OC)c2c(=O)[nH]c(-c3ccc(N4CCOCC4)cc3)nc2c1 [Example 44, 5,7-dimethoxy-2-(4-morpholinophenyl)quinazolin-4(3H)-one]",Active
17,"COc1cc(OC)c2c(=O)[nH]c(-c3ccc(CN4CCN(C)CC4)cc3)nc2c1 [Example 54, 5,7-dimethoxy-2-(4-((4-methylpiperazin-1-yl)methyl)phenyl)quinazolin-4(3H)-one]",Active
18,"COc1cc(OC)c2c(=O)[nH]c(-c3ccc(CN4CCOCC4)cc3)nc2c1 [Example 61, 5,7-dimethoxy-2-(4-(morpholinomethyl)phenyl)quinazolin-4(3H)-one]",Active
19,"CCN1CCN(Cc2ccc(-c3nc4cc(OC)cc(OC)c4c(=O)[nH]3)cc2)CC1 [Example 62, 2-(4-((4-ethylpiperazin-1-yl)methyl)phenyl)-5,7-dimethoxyquinazolin-4(3H)-one]",Active

row,SMILES,FRET activity (<50 uM)
1,"COc1ccc2nc(-c3cc(C)c(OCCO)c(C)c3)[nH]c(=O)c2c1 [Example 76, 2-(4-(2-hydroxyethoxy)-3,5-dimethylphenyl)-6-methoxyquinazolin-4(3H)-one]",Inactive
2,"COc1cc(OC)c2c(=O)[nH]c(-c3ccccc3Cl)nc2c1 [Example 77, 2-(2-chlorophenyl)-5,7-dimethoxyquinazolin-4(3H)-one]",Inactive
3,"COc1cccc2nc(-c3cc(C)c(OCCO)c(C)c3)[nH]c(=O)c12 [Example 78, 2-(4-(2-hydroxyethoxy)-3,5-dimethylphenyl)-5-methoxyquinazolin-4(3H)-one]",Active
4,"COc1cc(OC)c2c(=O)[nH]c(-c3cccc(-c4ccc(S(C)(=O)=O)cc4)n3)nc2c1 [Example 80, 5,7-dimethoxy-2-(6-(4-(methylsulfonyl)phenyl)pyridin-2-yl)quinazolin-4(3H)-one]",Active
5,"COc1cc(OC)c2c(=O)[nH]c(-c3cccc(C)n3)nc2c1 [Example 81, 5,7-dimethoxy-2-(6-methylpyridin-2-yl)quinazolin-4(3H)-one]",Active
6,"COc1cc(OC)c2c(=O)[nH]c(-c3cccc(-c4ccc(SC)cc4)n3)nc2c1 [Example 82, 5,7-dimethoxy-2-(6-(4-(methylthio)phenyl)pyridin-2-yl)quinazolin-4(3H)-one]",Inactive
7,"COc1cc(OC)c2c(=O)[nH]c(-c3cc(C)nc(Cl)c3)nc2c1 [Example 83, 2-(2-chloro-6-methylpyridin-4-yl)-5,7-dimethoxyquinazolin-4(3H)-one]",Inactive
8,"COc1cc(OC)c2c(=O)[nH]c(-c3cc(C)c(OC)c(C)c3)nc2c1 [Example 84, 5,7-dimethoxy-2-(4-methoxy-3,5-dimethylphenyl)quinazolin-4(3H)-one]",Active
9,"COc1cc(OC)c2c(=O)[nH]c(-c3cc(C)c(N)c(C)c3)nc2c1 [Example 85, 2-(4-amino-3,5-dimethylphenyl)-5,7-dimethoxyquinazolin-4(3H)-one]",Active
10,"COc1cc(OC)c2c(=O)[nH]c(-c3cc(C)cc(C)c3)nc2c1 [Example 86, 2-(3,5-dimethylphenyl)-5,7-dimethoxyquinazolin-4(3H)-one]",Active
11,"COc1cc(OC)c2c(=O)[nH]c(-c3cc(C)c(/N=C/N(C)C)c(C)c3)nc2c1 [Example 87, (E)-N′-(4-(5,7-dimethoxy-4-oxo-3,4-dihydroquinazolin-2-yl)-2,6-dimethylphenyl)-N,N-dimethylformimidamide]",Active
12,"Cc1cc(-c2nc3ccc(Br)cc3c(=O)[nH]2)cc(C)c1O [Example 88, 6-bromo-2-(4-hydroxy-3,5-dimethylphenyl)quinazolin-4(3H)-one]",Inactive
13,"Cc1cc(-c2nc3ccc(Br)cc3c(=O)[nH]2)cc(C)c1OCCO [Example 89, 6-bromo-2-(4-(2-hydroxyethoxy)-3,5-dimethylphenyl)quinazolin-4(3H)-one]",Inactive
14,"COc1cc(OC)c2c(=O)[nH]c(-c3cc(C)c(OCc4ccccc4)c(C)c3)nc2c1 [Example 90, 2-(4-(benzyloxy)-3,5-dimethylphenyl)-5,7-dimethoxyquinazolin-4(3H)-one]",Inactive
15,"COc1cc(OC)c2c(=O)[nH]c(-c3ccc(OCCO)c(C)c3)nc2c1 [Example 91, 2-(4-(2-hydroxyethoxy)-3-methylphenyl)-5,7-dimethoxyquinazolin-4(3H)-one]",Active
16,"COc1cc(OC)c2c(=O)[nH]c(-c3ccc(O)c(C)c3)nc2c1 [Example 92, 2-(4-hydroxy-3-methylphenyl)-5,7-dimethoxyquinazolin-4(3H)-one]",Active
17,"CNC(=O)c1ccccc1C(=O)NCCOc1c(C)cc(-c2nc3cc(OC)cc(OC)c3c(=O)[nH]2)cc1C [Example 93, N1-(2-(4-(5,7-dimethoxy-4-oxo-3,4-dihydroquinazolin-2-yl)-2,6-dimethylphenoxy)ethyl)-N2-methylphthalamide]",Active
18,"COc1ccc(S(=O)(=O)NCCOc2c(C)cc(-c3nc4cc(OC)cc(OC)c4c(=O)[nH]3)cc2C)cc1 [Example 94, N-(2-(4-(5,7-dimethoxy-4-oxo-3,4-dihydroquinazolin-2-yl)-2,6-dimethylphenoxy)ethyl)-4-methoxybenzenesulfonamide]",Inactive
